Results reported in the supplement of paper PMC10307832.

Experiments:
Assay in all cases: relative viability (nuclei count vs DMSO), 5 days (fraction); higher = more cells survive
BEN = test system: BEN
In short: (§1)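 Relative viability equals treated-well nuclei counts divided by vehicle-well nuclei counts. Counts came from 4× images of lung cancer cell lines grown in 1536-well plates for 5 days after pin-tool dosing on the day after seeding. Dosing used one drug alone or a fixed anchor-drug dose plus five library-drug doses (not always all listed) in √10 steps, and values are medians of duplicate plates.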

NCI-H650 = test system: NCI-H650
In short: as §1

NCI-H441 = test system: NCI-H441
In short: as §1

NCI-H2023 = test system: NCI-H2023
In short: as §1

NCI-H520 = test system: NCI-H520
In short: as §1

NCI-H1650 = test system: NCI-H1650
In short: as §1

201T = test system: 201T
In short: as §1

ABC-1 = test system: ABC-1
In short: as §1

NCI-H1915 = test system: NCI-H1915
In short: as §1

NCI-H661 = test system: NCI-H661
In short: as §1

NCI-H596 = test system: NCI-H596
In short: as §1

A-427 = test system: A-427
In short: as §1

CAL-12T = test system: CAL-12T
In short: as §1

NCI-H1651 = test system: NCI-H1651
In short: as §1

NCI-H1944 = test system: NCI-H1944
In short: as §1

NCI-H460 = test system: NCI-H460
In short: as §1

PC-3 [JPC-3] = test system: PC-3 [JPC-3]
In short: as §1

NCI-H727 = test system: NCI-H727
In short: as §1

LC-2-ad = test system: LC-2-ad
In short: as §1

LCLC-97TM1 = test system: LCLC-97TM1
In short: as §1

NCI-H2087 = test system: NCI-H2087
In short: as §1

H3255 = test system: H3255
In short: as §1

Compound: Cc1sc2c(c1C)C(c1ccc(Cl)cc1)=N[C@@H](CC(=O)OC(C)(C)C)c1nnc(C)n1-2 [JQ1] + Cc1nc(Nc2ncc(C(=O)Nc3c(C)cccc3Cl)s2)cc(N2CCN(CCO)CC2)n1 [Dasatinib] (partner 0.075 µM)
- relative viability (BEN; first compound 0.04 µM): 0.302
- relative viability (BEN; first compound 0.1265 µM): 0.307
- relative viability (BEN; first compound 0.4 µM): 0.309
- relative viability (BEN; first compound 1.265 µM): 0.274
- relative viability (BEN; first compound 4 µM): 0.217
- relative viability (NCI-H650; first compound 0.04 µM): 0.462
- relative viability (NCI-H650; first compound 0.1265 µM): 0.301
- relative viability (NCI-H650; first compound 0.4 µM): 0.328
- relative viability (NCI-H650; first compound 1.265 µM): 0.277
- relative viability (NCI-H650; first compound 4 µM): 0.244
- relative viability (NCI-H441; first compound 0.04 µM): 0.558
- relative viability (NCI-H441; first compound 0.1265 µM): 0.572
- relative viability (NCI-H441; first compound 0.4 µM): 0.634
- relative viability (NCI-H441; first compound 1.265 µM): 0.273
- relative viability (NCI-H441; first compound 4 µM): 0.209
- relative viability (NCI-H2023; first compound 0.04 µM): 0.5
- relative viability (NCI-H2023; first compound 0.1265 µM): 0.339
- relative viability (NCI-H2023; first compound 0.4 µM): 0.272
- relative viability (NCI-H2023; first compound 1.265 µM): 0.178
- relative viability (NCI-H2023; first compound 4 µM): 0.15
- relative viability (NCI-H520; first compound 0.04 µM): 0.206
- relative viability (NCI-H520; first compound 0.1265 µM): 0.196
- relative viability (NCI-H520; first compound 0.4 µM): 0.207
- relative viability (NCI-H520; first compound 1.265 µM): 0.159
- relative viability (NCI-H520; first compound 4 µM): 0.221
- relative viability (NCI-H1650; first compound 0.04 µM): 0.313
- relative viability (NCI-H1650; first compound 0.1265 µM): 0.272
- relative viability (NCI-H1650; first compound 0.4 µM): 0.201
- relative viability (NCI-H1650; first compound 1.265 µM): 0.134
- relative viability (NCI-H1650; first compound 4 µM): 0.143
- relative viability (201T; first compound 0.04 µM): 0.606
- relative viability (201T; first compound 0.1265 µM): 0.428
- relative viability (201T; first compound 0.4 µM): 0.508
- relative viability (201T; first compound 1.265 µM): 0.491
- relative viability (201T; first compound 4 µM): 0.372
- relative viability (ABC-1; first compound 0.04 µM): 0.583
- relative viability (ABC-1; first compound 0.1265 µM): 0.413
- relative viability (ABC-1; first compound 0.4 µM): 0.417
- relative viability (ABC-1; first compound 1.265 µM): 0.429
- relative viability (ABC-1; first compound 4 µM): 0.333
- relative viability (NCI-H1915; first compound 0.04 µM): 0.281
- relative viability (NCI-H1915; first compound 0.1265 µM): 0.303
- relative viability (NCI-H1915; first compound 0.4 µM): 0.317
- relative viability (NCI-H1915; first compound 1.265 µM): 0.249
- relative viability (NCI-H1915; first compound 4 µM): 0.191
- relative viability (NCI-H661; first compound 0.04 µM): 0.814
- relative viability (NCI-H661; first compound 0.1265 µM): 0.564
- relative viability (NCI-H661; first compound 0.4 µM): 0.558
- relative viability (NCI-H661; first compound 1.265 µM): 0.379
- relative viability (NCI-H661; first compound 4 µM): 0.556
- relative viability (NCI-H596; first compound 0.04 µM): 0.671
- relative viability (NCI-H596; first compound 0.1265 µM): 0.456
- relative viability (NCI-H596; first compound 0.4 µM): 0.559
- relative viability (NCI-H596; first compound 1.265 µM): 0.281
- relative viability (NCI-H596; first compound 4 µM): 0.29
- relative viability (A-427; first compound 0.04 µM): 0.759
- relative viability (A-427; first compound 0.1265 µM): 0.592
- relative viability (A-427; first compound 0.4 µM): 0.696
- relative viability (A-427; first compound 1.265 µM): 0.696
- relative viability (A-427; first compound 4 µM): 0.529
- relative viability (CAL-12T; first compound 0.04 µM): 0.427
- relative viability (CAL-12T; first compound 0.1265 µM): 0.332
- relative viability (CAL-12T; first compound 0.4 µM): 0.228
- relative viability (CAL-12T; first compound 1.265 µM): 0.144
- relative viability (CAL-12T; first compound 4 µM): 0.213
- relative viability (NCI-H1651; first compound 0.04 µM): 0.384
- relative viability (NCI-H1651; first compound 0.1265 µM): 0.292
- relative viability (NCI-H1651; first compound 0.4 µM): 0.306
- relative viability (NCI-H1651; first compound 1.265 µM): 0.246
- relative viability (NCI-H1651; first compound 4 µM): 0.221
- relative viability (NCI-H1944; first compound 0.04 µM): 0.202
- relative viability (NCI-H1944; first compound 0.1265 µM): 0.14
- relative viability (NCI-H1944; first compound 0.4 µM): 0.204
- relative viability (NCI-H1944; first compound 1.265 µM): 0.179
- relative viability (NCI-H1944; first compound 4 µM): 0.214
- relative viability (NCI-H460; first compound 0.04 µM): 0.5
- relative viability (NCI-H460; first compound 0.1265 µM): 0.221
- relative viability (NCI-H460; first compound 0.4 µM): 0.201
- relative viability (NCI-H460; first compound 1.265 µM): 0.171
- relative viability (NCI-H460; first compound 4 µM): 0.075
- relative viability (PC-3 [JPC-3]; first compound 0.04 µM): 0.998
- relative viability (PC-3 [JPC-3]; first compound 0.1265 µM): 1.02
- relative viability (PC-3 [JPC-3]; first compound 0.4 µM): 1.16
- relative viability (PC-3 [JPC-3]; first compound 1.265 µM): 0.96
- relative viability (PC-3 [JPC-3]; first compound 4 µM): 0.578
- relative viability (NCI-H727; first compound 0.04 µM): 0.354
- relative viability (NCI-H727; first compound 0.1265 µM): 0.555
- relative viability (NCI-H727; first compound 0.4 µM): 0.398
- relative viability (NCI-H727; first compound 1.265 µM): 0.295
- relative viability (NCI-H727; first compound 4 µM): 0.426
- relative viability (LC-2-ad; first compound 0.04 µM): 0.505
- relative viability (LC-2-ad; first compound 0.1265 µM): 0.472
- relative viability (LC-2-ad; first compound 0.4 µM): 0.219
- relative viability (LC-2-ad; first compound 1.265 µM): 0.178
- relative viability (LC-2-ad; first compound 4 µM): 0.191
- relative viability (LCLC-97TM1; first compound 0.04 µM): 0.896
- relative viability (LCLC-97TM1; first compound 0.1265 µM): 0.906
- relative viability (LCLC-97TM1; first compound 0.4 µM): 0.645
- relative viability (LCLC-97TM1; first compound 1.265 µM): 0.694
- relative viability (LCLC-97TM1; first compound 4 µM): 0.352
- relative viability (NCI-H2087; first compound 0.04 µM): 0.781
- relative viability (NCI-H2087; first compound 0.1265 µM): 0.774
- relative viability (NCI-H2087; first compound 0.4 µM): 0.466
- relative viability (NCI-H2087; first compound 1.265 µM): 0.414
- relative viability (NCI-H2087; first compound 4 µM): 0.324
- relative viability (H3255; first compound 0.04 µM): 0.438
- relative viability (H3255; first compound 0.1265 µM): 0.319
- relative viability (H3255; first compound 0.4 µM): 0.504
- relative viability (H3255; first compound 1.265 µM): 0.317
- relative viability (H3255; first compound 4 µM): 0.269
